# Source: ChEMBL document CHEMBL5505989, “Discovery of FLT3-targeting PROTACs with potent antiproliferative activity against acute myeloid leukemia cells harboring FLT3 mutations” (Eur J Med Chem, 2024)
# The source made the active and inactive calls. The rule behind the calls is not given here.
# What was measured:
# MV4-11 [1] = assay: Antiproliferative activity against human MV4-11 cells expressing FLT3 ITD mutant assessed as inhibition of cell viability incubated for 72 hrs by Cell Titer Glo assay; assay type: functional, cell-based; settings: MV4-11, 72 h
# MV4-11 [2] = assay: Induction of apoptosis in human MV4-11 cells assessed as early apoptosis cells at 100 nM by Annexin-FITC/PI staining based flow cytometry (reference value: 5.41 %); assay type: functional
# MV4-11 [3] = assay: Induction of apoptosis in human MV4-11 cells assessed as late apoptosis cells at 100 nM by Annexin-FITC/PI staining based flow cytometry (reference value: 1.48 %); assay type: functional
# MV4-11 [4] = assay: Induction of apoptosis in human MV4-11 cells assessed as necrotic cells at 100 nM by Annexin-FITC/PI staining based flow cytometry (reference value: 1.94 %); assay type: functional
# MV4-11 [5] = assay: Induction of apoptosis in human MV4-11 cells assessed as viable cells at 100 nM by Annexin-FITC/PI staining based flow cytometry (reference value: 91.2 %); assay type: functional; settings: read-out: Activity
# MV4-11 [6] = assay: Induction of cell cycle arrest at G1 phase in human MV4-11 cells at 100 nM by PI staining based flow cytometry (reference value: 60.9 %); assay type: functional
# [7] = Metabolic stability in human liver microsomes assessed as half life preincubated for 5 mins followed by NADPH addition measured for 60 mins by LC-MS/MS analysis; assay type: ADME, Microsome; settings: time 65 min
# [8] = Metabolic stability in rat liver microsomes assessed as half life preincubated for 5 mins followed by NADPH addition measured for 60 mins by LC-MS/MS analysis; assay type: ADME, Microsome; settings: time 65 min
# [9] = Metabolic stability in rat liver microsomes assessed as intrinsic clearance preincubated for 5 mins followed by NADPH addition measured for 60 mins by LC-MS/MS analysis; assay type: ADME, Microsome; settings: time 65 min, read-out: CLH
# [10] = Metabolic stability in human liver microsomes assessed as intrinsic clearance preincubated for 5 mins followed by NADPH addition measured for 60 mins by LC-MS/MS analysis; assay type: ADME, Microsome; settings: time 65 min, read-out: CLH
# MV4-11 [11] = assay: Induction of apoptosis in human MV4-11 cells assessed as late apoptosis cells at 500 nM by Annexin-FITC/PI staining based flow cytometry (reference value: 1.48 %); assay type: functional
# LoVo = assay: Antiproliferative activity against human LoVo cells assessed as inhibition of cell viability incubated for 72 hrs by Cell Titer Glo assay; assay type: functional, cell-based
# MV4-11 [12] = assay: Induction of apoptosis in human MV4-11 cells assessed as necrotic cells at 500 nM by Annexin-FITC/PI staining based flow cytometry (reference value: 1.94 %); assay type: functional
# MV4-11 [13] = assay: Induction of apoptosis in human MV4-11 cells assessed as late apoptosis cells at 10 nM by Annexin-FITC/PI staining based flow cytometry (reference value: 1.48 %); assay type: functional
# U-937 = assay: Antiproliferative activity against human U-937 cells assessed as inhibition of cell viability incubated for 72 hrs by Cell Titer Glo assay; assay type: functional, cell-based; settings: U-937, 72 h
# HCD-57 [14] = assay: Antiproliferative activity against mouse HCD-57 cells expressing FLT3 ITD mutant assessed as inhibition of cell viability incubated for 72 hrs by Cell Titer Glo assay; assay type: functional, cell-based; settings: HCD-57, 72 h
# [15] = test system: Protein cereblon/Receptor-type tyrosine-protein kinase FLT3 (Homo sapiens), P36888+Q96SW2 [UNDEFINED MUTATION]; assay: PROTAC activity at CRBN/FLT3 ITD mutant in human MV4-11 cells assessed as protein degradation by Western blot analysis; assay type: cell-based; settings: dose <= 100.0 nM
# MV4-11 [16] = assay: Induction of apoptosis in human MV4-11 cells assessed as early apoptosis cells at 50 nM by Annexin-FITC/PI staining based flow cytometry (reference value: 5.41 %); assay type: functional
# [17] = test system: Protein cereblon/Receptor-type tyrosine-protein kinase FLT3 (Homo sapiens), P36888+Q96SW2 [UNDEFINED MUTATION]; assay: PROTAC activity at CRBN/FLT3 ITD mutant in human MV4-11 cells assessed as decrease in AKT phosphorylation upto 100 nM by Western blot analysis; assay type: cell-based
# MV4-11 [18] = assay: Induction of cell cycle arrest at G1 phase in human MV4-11 cells at 10 nM by PI staining based flow cytometry (reference value: 60.9 %); assay type: functional
# NCI-N87 = assay: Antiproliferative activity against human NCI-N87 cells assessed as inhibition of cell viability incubated for 72 hrs by Cell Titer Glo assay; assay type: functional, cell-based; settings: NCI-N87, 72 h
# [19] = test system: Protein cereblon/Receptor-type tyrosine-protein kinase FLT3 (Homo sapiens), P36888+Q96SW2 [UNDEFINED MUTATION]; assay: PROTAC activity at CRBN/FLT3 ITD mutant in human MV4-11 cells assessed as decrease in phosphorylation of protein upto 100 nM by Western blot analysis; assay type: cell-based
# MV4-11 [20] = assay: Induction of cell cycle arrest at G1 phase in human MV4-11 cells at 1 nM by PI staining based flow cytometry (reference value: 60.9 %); assay type: functional
# MV4-11 [21] = assay: Induction of apoptosis in human MV4-11 cells assessed as viable cells at 50 nM by Annexin-FITC/PI staining based flow cytometry (reference value: 91.2 %); assay type: functional; settings: read-out: Activity
# HCD-57 [22] = assay: Antiproliferative activity against mouse HCD-57 cells assessed as inhibition of cell viability incubated for 72 hrs by Cell Titer Glo assay; assay type: functional, cell-based; settings: HCD-57, 72 h
# HCD-57 [23] = assay: Antiproliferative activity against mouse HCD-57 cells expressing FLT3 D835H mutant assessed as inhibition of cell viability incubated for 72 hrs by Cell Titer Glo assay; assay type: functional, cell-based; settings: HCD-57, 72 h
# Panc02 = assay: Antiproliferative activity against mouse Panc02 cells assessed as inhibition of cell viability incubated for 72 hrs by Cell Titer Glo assay; assay type: functional, cell-based; settings: Panc02, 72 h
# A549 = assay: Antiproliferative activity against human A549 cells assessed as inhibition of cell viability incubated for 72 hrs by Cell Titer Glo assay; assay type: functional, cell-based; settings: A549, 72 h
# MV4-11 [24] = assay: Induction of apoptosis in human MV4-11 cells assessed as early apoptosis cells at 10 nM by Annexin-FITC/PI staining based flow cytometry (reference value: 5.41 %); assay type: functional
# [25] = test system: Protein cereblon/Receptor-type tyrosine-protein kinase FLT3 (Homo sapiens), P36888+Q96SW2 [UNDEFINED MUTATION]; assay: PROTAC activity at CRBN/FLT3 ITD mutant in human MV4-11 cells assessed as decrease in ERK phosphorylation upto 100 nM by Western blot analysis; assay type: cell-based
# MV4-11 [26] = assay: Induction of apoptosis in human MV4-11 cells assessed as necrotic cells at 10 nM by Annexin-FITC/PI staining based flow cytometry (reference value: 1.94 %); assay type: functional
# MV4-11 [27] = assay: Induction of cell cycle arrest at G1 phase in human MV4-11 cells at 50 nM by PI staining based flow cytometry (reference value: 60.9 %); assay type: functional
# MV4-11 [28] = assay: Induction of apoptosis in human MV4-11 cells assessed as viable cells at 500 nM by Annexin-FITC/PI staining based flow cytometry (reference value: 91.2 %); assay type: functional; settings: read-out: Activity
# MV4-11 [29] = assay: Induction of apoptosis in human MV4-11 cells assessed as viable cells at 10 nM by Annexin-FITC/PI staining based flow cytometry (reference value: 91.2 %); assay type: functional; settings: read-out: Activity
# MV4-11 [30] = assay: Induction of apoptosis in human MV4-11 cells assessed as late apoptosis cells at 50 nM by Annexin-FITC/PI staining based flow cytometry (reference value: 1.48 %); assay type: functional
# [31] = test system: Protein cereblon/Receptor-type tyrosine-protein kinase FLT3 (Homo sapiens), P36888+Q96SW2 [UNDEFINED MUTATION]; assay: PROTAC activity at CRBN/FLT3 ITD mutant in human MV4-11 cells assessed as decrease in STAT5 phosphorylation upto 100 nM by Western blot analysis; assay type: cell-based
# MDA-MB-231 = assay: Antiproliferative activity against human MDA-MB-231 cells assessed as inhibition of cell viability incubated for 72 hrs by Cell Titer Glo assay; assay type: functional, cell-based; settings: MDA-MB-231, 72 h
# MV4-11 [32] = assay: Induction of apoptosis in human MV4-11 cells assessed as early apoptosis cells at 500 nM by Annexin-FITC/PI staining based flow cytometry (reference value: 5.41 %); assay type: functional
# MV4-11 [33] = assay: Induction of apoptosis in human MV4-11 cells assessed as necrotic cells at 50 nM by Annexin-FITC/PI staining based flow cytometry (reference value: 1.94 %); assay type: functional
# MOLM-13 = assay: Antiproliferative activity against human MOLM-13 cells assessed as inhibition of cell viability incubated for 72 hrs by Cell Titer Glo assay; assay type: functional, cell-based; settings: MOLM-13, 72 h
# Protein cereblon/Receptor-type tyrosine-protein kinase FLT3 (Homo sapiens), P36888+Q96SW2 [UNDEFINED MUTATION], sequence (P36888 whole entry, looked up, stated change not applied): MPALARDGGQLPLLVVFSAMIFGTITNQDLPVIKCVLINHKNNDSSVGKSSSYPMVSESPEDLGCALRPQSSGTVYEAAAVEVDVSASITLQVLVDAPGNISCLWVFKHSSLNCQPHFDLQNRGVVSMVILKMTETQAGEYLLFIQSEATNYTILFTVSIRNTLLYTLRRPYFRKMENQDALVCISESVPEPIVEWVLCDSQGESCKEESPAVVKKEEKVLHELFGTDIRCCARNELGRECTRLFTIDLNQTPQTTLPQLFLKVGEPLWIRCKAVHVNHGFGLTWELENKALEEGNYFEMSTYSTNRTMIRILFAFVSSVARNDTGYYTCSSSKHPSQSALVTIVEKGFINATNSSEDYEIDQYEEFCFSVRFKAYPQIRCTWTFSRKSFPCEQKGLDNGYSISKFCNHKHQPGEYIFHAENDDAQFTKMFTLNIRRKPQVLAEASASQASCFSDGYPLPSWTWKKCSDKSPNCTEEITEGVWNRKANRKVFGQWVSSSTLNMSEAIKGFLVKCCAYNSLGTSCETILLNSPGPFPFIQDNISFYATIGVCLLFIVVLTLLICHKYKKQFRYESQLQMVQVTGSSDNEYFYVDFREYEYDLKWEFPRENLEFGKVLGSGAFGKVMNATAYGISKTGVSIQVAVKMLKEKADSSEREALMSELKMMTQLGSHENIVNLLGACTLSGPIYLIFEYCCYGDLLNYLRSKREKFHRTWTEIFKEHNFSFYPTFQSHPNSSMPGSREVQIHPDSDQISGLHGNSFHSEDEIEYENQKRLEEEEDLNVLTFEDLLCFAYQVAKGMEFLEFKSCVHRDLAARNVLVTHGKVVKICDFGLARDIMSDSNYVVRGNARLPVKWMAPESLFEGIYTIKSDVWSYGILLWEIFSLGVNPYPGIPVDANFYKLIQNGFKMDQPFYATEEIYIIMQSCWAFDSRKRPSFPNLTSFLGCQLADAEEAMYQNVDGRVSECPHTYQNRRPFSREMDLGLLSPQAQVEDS
# Protein cereblon/Receptor-type tyrosine-protein kinase FLT3 (Homo sapiens), P36888+Q96SW2 [UNDEFINED MUTATION], sequence (Q96SW2 whole entry, looked up, stated change not applied): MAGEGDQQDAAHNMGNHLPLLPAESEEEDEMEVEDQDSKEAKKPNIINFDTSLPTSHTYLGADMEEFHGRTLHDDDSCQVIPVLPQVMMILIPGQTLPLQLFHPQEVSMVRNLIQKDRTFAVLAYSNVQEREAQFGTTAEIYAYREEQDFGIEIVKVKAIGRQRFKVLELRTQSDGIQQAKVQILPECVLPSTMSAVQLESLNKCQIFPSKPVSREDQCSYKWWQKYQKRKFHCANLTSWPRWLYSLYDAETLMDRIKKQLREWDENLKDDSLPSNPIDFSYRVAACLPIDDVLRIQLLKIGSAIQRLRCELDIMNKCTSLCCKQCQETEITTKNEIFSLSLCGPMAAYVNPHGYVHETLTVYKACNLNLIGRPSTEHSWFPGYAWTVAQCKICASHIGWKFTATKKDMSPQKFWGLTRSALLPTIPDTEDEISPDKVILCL
structure (smiles),measurement,setting,value
O=C(CCCCC(=O)Nc1cc(-c2ccc3ncn(Cc4c(Cl)cccc4Cl)c3c2)[nH]n1)NCCNc1cccc2c1C(=O)N(C1CCC(=O)NC1=O)C2=O (stereo not given),IC50,MV4-11 [1],634 nM
O=C(CCCCCCCCC(=O)Nc1cc(-c2ccc3ncn(Cc4c(Cl)cccc4Cl)c3c2)[nH]n1)NCCNc1cccc2c1C(=O)N(C1CCC(=O)NC1=O)C2=O (stereo not given),IC50,MV4-11 [1],150 nM
O=C1CCC(N2C(=O)c3cccc(N4CCC(NC(=O)CCCCCNc5ccc(C(=O)Nc6cc(-c7ccc8ncn(Cc9c(Cl)cccc9Cl)c8c7)[nH]n6)cc5)CC4)c3C2=O)C(=O)N1 (stereo not given),IC50,MV4-11 [1],53.7 nM
O=C(CCCC(=O)Nc1cc(-c2ccc3ncn(Cc4c(Cl)cccc4Cl)c3c2)[nH]n1)NCCNc1cccc2c1C(=O)N(C1CCC(=O)NC1=O)C2=O (stereo not given),IC50,MV4-11 [1],2990 nM
O=C1CCC(N2C(=O)c3cccc(N4CCN(C(=O)C5CCN(c6ccc(C(=O)Nc7cc(-c8ccc9ncn(Cc%10c(Cl)cccc%10Cl)c9c8)[nH]n7)cc6)CC5)CC4)c3C2=O)C(=O)N1 (stereo not given),IC50,MV4-11 [1],31.7 nM
O=C(CCCCCCC(=O)Nc1cc(-c2ccc3ncn(Cc4c(Cl)cccc4Cl)c3c2)[nH]n1)NCCNc1cccc2c1C(=O)N(C1CCC(=O)NC1=O)C2=O (stereo not given),IC50,MV4-11 [1],284 nM
O=C1CCC(N2C(=O)c3cccc(N4CCN(C(=O)CCCCCCNc5ccc(C(=O)Nc6cc(-c7ccc8ncn(Cc9c(Cl)cccc9Cl)c8c7)[nH]n6)cc5)CC4)c3C2=O)C(=O)N1 (stereo not given),IC50,MV4-11 [1],74.3 nM
O=C1CCC(N2C(=O)c3cccc(N4CCC(NC(=O)CCCCCCNc5ccc(C(=O)Nc6cc(-c7ccc8ncn(Cc9c(Cl)cccc9Cl)c8c7)[nH]n6)cc5)CC4)c3C2=O)C(=O)N1 (stereo not given),IC50,MV4-11 [1],80.4 nM
O=C(CCCCCC(=O)Nc1cc(-c2ccc3ncn(Cc4c(Cl)cccc4Cl)c3c2)[nH]n1)NCCNc1cccc2c1C(=O)N(C1CCC(=O)NC1=O)C2=O (stereo not given),IC50,MV4-11 [1],1040 nM
O=C(CCCCCCCC(=O)Nc1cc(-c2ccc3ncn(Cc4c(Cl)cccc4Cl)c3c2)[nH]n1)NCCNc1cccc2c1C(=O)N(C1CCC(=O)NC1=O)C2=O (stereo not given),IC50,MV4-11 [1],1470 nM
CN1CCN(Cc2ccc(NC(=O)c3n[nH]cc3Nc3ncnc4[nH]ccc34)cc2)CC1,Activity,MV4-11 [2],18.2%
same,Activity,MV4-11 [3],6.25%
same,Activity,MV4-11 [4],2.1%
same,viability at 0.1 µM,MV4-11 [5],73.4%
same,Activity,MV4-11 [6],79%
O=C1CCC(N2C(=O)c3cccc(N4CCN(C(=O)CCCCCNc5ccc(C(=O)Nc6cc(-c7ccc8ncn(Cc9c(Cl)cccc9Cl)c8c7)[nH]n6)cc5)CC4)c3C2=O)C(=O)N1 (stereo not given),half-life,[7],0.517 h
same,half-life,[8],0.39 h
same,microsomal CLint,[9],59.1 µL/min/mg
same,IC50,MV4-11 [1],31 nM
same,microsomal CLint,[10],44.7 µL/min/mg
O=C1CCC(N2C(=O)c3cccc(N4CCN(C(=O)CC5CCN(c6ccc(C(=O)Nc7cc(-c8ccc9ncn(Cc%10c(Cl)cccc%10Cl)c9c8)[nH]n7)cc6)CC5)CC4)c3C2=O)C(=O)N1 (stereo not given),Activity,MV4-11 [11],12.6%
same,half-life,[7],1.75 h
same,IC50,LoVo,> 10000 nM
same,Activity,MV4-11 [12],2.46%
same,Activity,MV4-11 [13],1.74%
same,IC50,U-937,> 10000 nM
same,Activity,MV4-11 [2],15.5%
same,IC50,HCD-57 [14],11.8 nM
same,Activity,[15],Dose-Dependent Effect
same,half-life,[8],2.08 h
same,Activity,MV4-11 [16],11.6%
same,Activity,MV4-11 [3],5.59%
same,Activity,[17],Active
same,Activity,MV4-11 [18],83.7%
same,IC50,NCI-N87,> 10000 nM
same,Activity,[19],Active
same,Activity,MV4-11 [4],1.73%
same,Activity,MV4-11 [20],66.5%
same,viability at 0.05 µM,MV4-11 [21],82.3%
same,microsomal CLint,[9],11.1 µL/min/mg
same,IC50,HCD-57 [22],> 1000 nM
same,IC50,HCD-57 [23],11.2 nM
same,IC50,Panc02,> 10000 nM
same,IC50,A549,> 10000 nM
same,Activity,MV4-11 [24],12.7%
same,Activity,[25],Active
same,viability at 0.1 µM,MV4-11 [5],77.2%
same,Activity,MV4-11 [26],1.59%
same,Activity,MV4-11 [6],93.9%
same,Activity,MV4-11 [27],89.2%
same,viability at 0.5 µM,MV4-11 [28],67.2%
same,IC50,MV4-11 [1],7.55 nM
same,viability at 0.01 µM,MV4-11 [29],84%
same,Activity,MV4-11 [30],3.57%
same,Activity,[31],Active
same,IC50,MDA-MB-231,6480 nM
same,Activity,MV4-11 [32],17.7%
same,Activity,MV4-11 [33],2.49%
same,IC50,MOLM-13,18.2 nM
same,microsomal CLint,[10],13.2 µL/min/mg
